Entries after “also recorded” stand apart in the source; their conditions may differ.
Tests used:
[1] = biological target: T1, caALK4 (Homo sapiens, UniProt P36896, T206D); assay: Constitutively-active ALK4 PAI-1 promoter reporter (CAGA-Luc); type: cell-based; details: PASMCs, up to 20 μM
T1 construct: expressed in transfected cells; host or cells: murine PASMCs, transient transfection
Description: Murine PASMCs grown to 50% confluence in 6-well plates were transiently transfected with 0.3 μg Id1 promoter luciferase reporter construct (BRE-Luc, Dr. Peter ten Dijke, Leiden University Medical Center, Netherlands (Korchynskyi et al., J. Biol. Chem. 277:4883-4891, 2002)) in combination with 0.6 μg plasmids expressing constitutively-active forms of BMP type I receptors (caALK2, caALK3, or caALK6, kindly provided by Dr. Kohei Miyazono, University of Tokyo, Japan (Fujii et al., Mol. Biol. Cell 10:3801-3813, 1999)), using Fugene6 (Roche). To assess Activin and […] type I receptor function, PASMCs were transiently transfected with 0.3 μg PAI-1 promoter luciferase reporter construct (CAGA-Luc, Dr. Peter ten Dijke (Dennler et al., Embo J. 17:3091-3100, 1998)) in combination with 0.6 μg plasmids expressing constitutively active forms of type I receptors (caALK4, caALK5, and caALK7, also provided by Dr. Kohei Miyazono (Okadome et al., J. Biol. Chem. 271:21687-21690, 1996; Shimizu et al., Genes Cells 3:125-134, 1998)). For both reporters, 0.2 μg pRL-TK Renilla luciferase (Promega) was used to control for transfection efficiency. […] Cell extracts were harvested, and relative promoter activity quantitated by the ratio of firefly to Renilla luciferase activity using the dual luciferase assay kit (Promega). […] Hepcidin promoter activity was measured by luciferase assay as above.

[2] = test system: C2C12 cells; assay: C2C12 cell count (CyQuant); type: cell-based; details: 4 μM
Description: C2C12 cells were seeded into 96 well plates at 2000 cells per well in DMEM supplemented with 2% FBS. Wells were treated in quadruplicate with BMP ligands and Compound C/Dorsomorphin or vehicle. Cells were harvested after 5 days in culture with 50 μl Tris buffered saline/1% Triton X-100. Lysates were added to p-nitro-phenylphosphate reagent in 96-well plates (Sigma) for 1 hour, and alkaline phosphatase activity expressed as absorbance at 405 nm. Cell viability and quantity were measured by Cell-titer Glo (Promega) and binding of nuclear dye CyQuant (Invitrogen), respectively, using replicate wells treated identically to those used for alkaline phosphatase measurements.

[3] = test system: chordin morphant embryos; assay: Rescue of ventralization in chordin morphant zebrafish embryos; type: in vivo; details: 20 μM at 2 hpf, 36 hpf
Text: Since treatment with Compound C/Dorsomorphin mimics BMP antagonism in zebrafish, it was postulated that Compound C/Dorsomorphin might rescue ventralization caused by loss of the endogenous BMP antagonist chordin ([…] et al., Development 123:143-151, 1996; Nasevicius et al., Nat. Genet. 26:216-220, 2000). […] Genet. 26:216-220, 2000; Leung et al., Dev. Biol. 277:235-254, 2005). […] Therefore, Compound C/Dorsomorphin treatment compensates for the loss of an endogenous BMP antagonist in zebrafish embryos, confirming its function as a BMP antagonist.

[4] = test system: hepcidin (HAMP) and Id1 mRNA; assay: Hepcidin and Id1 mRNA qRT-PCR in Hep3B cells; type: cell-based, human
Description: (§1) Quantitative RT-PCR was performed for mRNA encoding Id1 or human hepcidin (HAMP) as previously described (Babitt et al., Nat. Genet. 38:531-539, 2006; Yu et al., J. Biol. Chem. 280:24443-24450, 2005), and normalized to 18S ribosomal RNA (rRNA) or β-actin mRNA levels.

[5] = test system: hepatic SMAD1/5/8 phosphorylation; assay: Iron-dextran challenge: hepatic SMAD1/5/8 phosphorylation in adult zebrafish; type: in vivo; parameters: dose or concentration left out as unconfirmed; details: co-injection with iron-dextran, intraperitoneal, 1 hour
[6] = test system: PI-3 kinase, JAK, STAT, PKA, PKC, and various other pathways; details: previous reports; cited from earlier work
[7] = test system: hepcidin (HAMP) mRNA; assay: Hepcidin mRNA qRT-PCR in HepG2 cells; type: cell-based, human; details: 10 μM in combination with BMP2
Description: as §1

T1 sequence (P36896 24-505 T206D): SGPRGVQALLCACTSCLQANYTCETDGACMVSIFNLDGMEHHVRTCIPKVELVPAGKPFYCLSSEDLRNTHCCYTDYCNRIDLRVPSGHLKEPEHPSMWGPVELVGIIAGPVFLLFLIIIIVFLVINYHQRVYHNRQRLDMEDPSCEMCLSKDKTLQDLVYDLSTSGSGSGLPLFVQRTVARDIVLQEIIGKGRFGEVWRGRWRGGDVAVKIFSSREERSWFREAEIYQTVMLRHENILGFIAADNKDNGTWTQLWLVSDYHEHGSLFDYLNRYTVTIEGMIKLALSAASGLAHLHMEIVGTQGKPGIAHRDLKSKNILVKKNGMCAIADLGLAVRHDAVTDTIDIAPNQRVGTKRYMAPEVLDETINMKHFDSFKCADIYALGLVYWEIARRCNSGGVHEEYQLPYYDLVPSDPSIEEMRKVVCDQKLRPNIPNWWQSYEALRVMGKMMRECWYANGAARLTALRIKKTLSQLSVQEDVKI

## c1cc(-c2cnn3cc(-c4ccc(OCCN5CCCCC5)cc4)cnc23)ccn1 [Compound C/Dorsomorphin]
[1]
  effect on caALK4-mediated PAI-1 promoter activity (CAGA-Luc): did not inhibit; also recorded: not decreased
[2]
  effect on cell count / cell toxicity: not associated with cell toxicity; also recorded: no significant effects; also recorded: without cellular toxicity; also recorded: did not affect cell count
[3]
  ventralization of chordin morphant embryos: prevented ventralization and ICM expansion; also recorded: little or no ventralization
[4]; 4 μM, IL-6 100 ng/ml, 6 hours
  Id1 mRNA, alone or in combination with IL-6: blocked; also recorded: below basal levels
  hepcidin mRNA, alone or in combination with IL-6: blocked; also recorded: below basal levels
[4]; DM 4 μM alone
  lowering of baseline hepcidin expression: 27%
[4]; DM 4 μM pretreatment, BMP4 20 ng/ml
  effect on BMP4-induced hepcidin mRNA expression: completely abrogated
[5]
  reduction of hepatic SMAD1/5/8 phosphorylation vs iron-dextran and vehicle: ~3 fold
[6]
  inhibition of activation of PI-3 kinase, JAK, STAT, PKA, PKC, and various other pathways: does not exhibit significant inhibition
[7]
  hepcidin mRNA with BMP2 co-treatment: abolished; also recorded: below the basal level
